We go through 2 molecules from publication PMC10498496, “Design and Synthesis of Poly(2,2′-Bipyridyl) Ligands for Induction of Cell Death in Cancer Cells: Control of Anticancer Activity by Complexation/Decomplexation with Biorelevant Metal Cations” (Inorganic Chemistry, 2023).

Molecules are shown by their SMILES. Where two headings read alike, the source gives them in different places. Some results are limits rather than exact numbers.

Format in all cases: cell-based, human
Assay [1] relates to Jurkat cells. Description: MTT assay, cytotoxicity against Jurkat cells. The following applies: MTT, 37 °C, read-out: EC50 against Jurkat (converted). The procedure: (§1) Second, we conducted the quantitative evaluation of the cytotoxicity of 1, 2, and 3 against various cancer cell lines by an MTT (3-(4,5-dimethylthiazol-2-yl)-2,5-diphenyltetrazolium bromide) assay. Jurkat, MOLT-4 (these two cell lines are human T-lymphocyte leukemia cells), and U937 (human lymphoma) cells (1.5 × 10^4 cells/well) were incubated in RPMI 1640 medium containing 10% FBS (fetal bovine serum) containing 1, 2, and 3 (0–25 μM) at 37 °C for 24 h, and then treated with the MTT reagent. A549 (human alveolar adenocarcinoma) and IMR-90 (normal human fetal lung fibroblast as model of normal cells) cells (1.5 × 10^4 cells/well) were incubated in DMEM (low glucose) with 10% FBS containing 1, 2, and 3 (0–25 μM), HeLa S3 (human epithelial carcinoma cells) cells (1.5 × 10^4 cells/well) were incubated in MEM with 10% FBS containing these ligands (0–25 μM) for 24 h at 37 °C and then treated with the MTT reagent.
• (a) Cytotoxic study. Jurkat cells, MOLT-4 cells, and U937 cells (1.5 × 10^5 cells/mL per one well) were incubated in 10% FBS RPMI 1640 medium containing 1 (0–25 μM), 2 (0–25 μM) , 3, cisplatin (0–100 μM), and actinomycin D (0–10 μM) under 5% CO2 at 37 °C for 24 h on 96 well plates (Watson), 0.5% MTT (3-(4,5-dimethyl-2-thiazolyl)-2,5-diphenyl-2H-tetrazolium bromide) reagent in PBS (10 μL) was then added to the cells. After incubation at 37 °C for 4 h, a formazan lysis solution (10% SDS in 0.01 N HCl) (100 μL) was added and the resulting solution was incubated overnight under the same conditions, followed by the measurement of absorbance at 570 nm with a microplate reader (BIO-RAD).
(Formazan colour is commonly taken as a measure of viable cells.)

Another assay deals with HeLa S3 cells. Kind of assay: MTT assay, cytotoxicity against HeLa S3 cells. The following applies: MTT, 37 °C, read-out: EC50 against HeLa S3 (converted). The procedure:
Second, we conducted the quantitative evaluation of the cytotoxicity of 1, 2, and 3 against various cancer cell lines by an MTT (3-(4,5-dimethylthiazol-2-yl)-2,5-diphenyltetrazolium bromide) assay. Jurkat, MOLT-4 (these two cell lines are human T-lymphocyte leukemia cells), and U937 (human lymphoma) cells (1.5 × 10^4 cells/well) were incubated in RPMI 1640 medium containing 10% FBS (fetal bovine serum) containing 1, 2, and 3 (0–25 μM) at 37 °C for 24 h, and then treated with the MTT reagent. […]
(§2) HeLa S3 cells and A549 cells in MEM and DMEM medium with 10% FBS (1.5 × 10^5 cells/mL per one well) were seeded in to 96 well plates and incubated for 24 h, MTT assay of poly(bpy) ligands (0–25 μM), cisplatin (0–100 μM), and actinomycin D (0–10 μM) was performed according to the same procedure described above.

Another assay has as its system A549 cells. Description: MTT assay, cytotoxicity against A549 cells. The following applies: treated for 24 h. The procedure: as §1, §2
Assay [2] has as its system Jurkat cells. Description: Annexin V-FITC/PI staining by flow cytometry. As to conditions: 24 h. The procedure: The cell death in Jurkat cells induced by 1 and cisplatin (after the treatment for 24 h) was characterized by the flow cytometry of Jurkat cells after co-staining with Annexin V-FITC and PI to characterize the early and late apoptosis or necrosis. Each of the four areas in Figure 6 indicates Annexin V-FITC negative and PI signal positive (= necrotic cells) (top left square), Annexin V-FITC positive and PI positive (= late apoptosis) (top right square), Annexin V-FITC negative and PI negative (= alive cells) (bottom left square); and Annexin V-FITC positive and PI signal negative (= early apoptosis cells) (bottom right square), respectively. As summarized in Figure 7, the percentage of late apoptotic cells of the cells that had been treated with cisplatin increased from 15 to 75% at [cisplatin] = 12.5 to 50 μM and the percentage of late apoptotic cells of cells treated with 1 increased from 14 to 65% at = […] to 5 μM.
Figure 6 Jurkat cells were treated with no ligand (a) and with 1 (0.5–5 μM) (b,c) and cisplatin (12.5–50 μM) (d,e) and for 24 h, stained with Annexin V-FITC/PI, and observed by flow cytometry. The four areas in each graph show necrotic cells in the top left square (Annexin V-FITC^-/PI^+), late apoptotic cells in the top right square (Annexin V-FITC^+/PI^+), alive cells in the bottom left square (Annexin V-FITC^–/PI^–), and apoptotic cells in the bottom right square (Annexin V-FITC^+/PI^–). TEXT PRINTED IN THE PICTURE: (b) 1: 1.14 (0.5 μM); 14.7 (0.5 μM); 83.5 (0.5 μM); 0.7 (0.5 μM) | (c) 1: 0.82 (5 μM); 59 (5 μM); 38.5 (5 μM); 1.6 (5 μM) | (d) cisplatin: 4.19 (12.5 μM); 24.3 (12.5 μM); 71.3 (12.5 μM); 0.23 (12.5 μM) | (e) cisplatin: 0.94 (50 μM); 66.2 (50 μM); 32.6 (50 μM); 0.24 (50 μM) DOUBTS OF THE COPYIST ABOUT THIS PICTURE: The quadrant numbers are printed without a measure or unit. In each panel they are given in the order top left, top right, bottom left, bottom right. / Panel (a) Control (1.26, 3.82, 94.9, 0.072) is left out because it is not a substance.
Jurkat cells (1.0 × 10^5 cells/tube) were incubated in 10% FBS RPMI 1640 medium containing solution of 1 ([…]) and cisplatin (0–50 μM) for 24 h. The cells were then centrifuged at 3000 rpm for 5 min at 4 °C, then the supernatant was discarded, and the pellet was resuspended in 200 μL of PBS. The cells were then centrifuged at 3000 rpm for 5 min at 4 °C, then the supernatant was discarded, and the pellet was resuspended in 195 μL of 1 × binding buffer. A 195 μL aliquot of the sample solution was incubated with 5 μL of FITC-conjugated annexin V (Invitrogen) for 15 min at room temperature in the dark. […] 200 μL of the sample solution transferred to culture tube were analyzed by flow cytometry (Becton Dickinson) using Cell Quest Research Software (Becton Dickinson).
(In flow cytometry, cells or beads pass a laser one at a time.)

Turning to `N.N.[Cl][Pt][Cl]` [cisplatin, reference compound], the EC50 – broadly, the concentration that produces a half-maximal response – was 33 ± 0.2 µM in the assay on Jurkat cells [1] (treated for 24 h), 29 ± 1.2 µM with HeLa S3 cells (treated for 24 h) and more than 100 µM with A549 cells (37 °C). Also, the “percentage of late apoptotic cells” value worked out at 15% in the assay with Jurkat cells [2] (12.5 μM (Figure 7, n = 3)) and 75% in the assay on Jurkat cells [2] (50 μM (Figure 7, n = 3)).
As to `c1ccc(-c2ccc(OCc3cc(COc4ccc(-c5ccccn5)nc4)cc(COc4ccc(-c5ccccn5)nc4)c3)cn2)nc1` [compound 1, 1,3,5-Tris(([2,2′-Bipyridin]-5-yloxy)methyl)benzene], the half-maximal effective concentration (EC50) in the assay with Jurkat cells [1] (Homo sapiens, Jurkat, treated for 24 h) is 0.14 ± 0.13 µM; in the assay on Jurkat cells [1] (Homo sapiens, Jurkat, treated for 48 h) it was 0.064 µM; with HeLa S3 cells (Homo sapiens, HeLa S3, treated for 24 h), 16 ± 0.33 µM; with HeLa S3 cells (Homo sapiens, HeLa S3, treated for 48 h) it was 2.8 µM; in the assay with A549 cells (Homo sapiens, A549, 37 °C), 15 ± 0.79 µM. The “percentage of late apoptotic cells” value with Jurkat cells [2] (0.25 μM (Figure 7, n = 3)) amounted to 14%; in the assay with Jurkat cells [2] (5 μM (Figure 7, n = 3)), 65%.
